In brackets after ≈: the same amount, converted by molar mass.
Assays:
[1] = tested on: Enterococcus faecium; experiment: Concentration required for the 50% growth inhibition of Streptococcus faecium MTX resist organism at 1 ng/mL folate concentration; format: functional, organism-based
[2] = Concentration required for the 50% growth inhibition of Streptococcus faecium ATCC 8043 organism at 1 ng/mL folate concentration
[3] = tested on: Enterococcus faecium; experiment: Concentration required for the 50% growth inhibition of Streptococcus faecium ATCC 8043 organism at 1 ng/mL folate concentration; format: functional, organism-based
[4] = tested on: Lacticaseibacillus casei; experiment: Concentration required for the 50% growth inhibition of Lactobacillus casei ATCC 7469 organism at 1 ng/mL folate concentration; format: functional, organism-based
[5] = target: Dihydrofolate reductase (Lactobacillus casei) (UniProt P00381); experiment: Concentration required for the 50% growth inhibition of Lactobacillus casei dihydrofolate reductase enzyme; settings: Lacticaseibacillus casei
[6] = tested on: L1210; experiment: % increase in lifespan was measured at 15 mg/kg dosage after sc administration; settings: Mus musculus
[7] = target: T1, Dihydrofolate reductase (Mus musculus, UniProt P00375); experiment: Tested for inhibition of dihydrofolate reductase enzyme
T1 sequence (P00375 whole entry): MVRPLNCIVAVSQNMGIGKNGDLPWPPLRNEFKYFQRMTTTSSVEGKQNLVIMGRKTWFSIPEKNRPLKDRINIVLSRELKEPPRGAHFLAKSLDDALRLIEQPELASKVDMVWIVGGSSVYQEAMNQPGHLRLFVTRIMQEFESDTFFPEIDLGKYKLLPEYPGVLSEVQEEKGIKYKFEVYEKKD

[8] = tested on: L1210; experiment: Antitumor activity expressed as mean survival time against L1210 leukemia cells in mice after sc administration at dose 3 mg/kg; settings: route subcutaneous
[9] = The efflux rate constant of the compound; format: ADME
[10] = tested on: L1210; experiment: % increase in lifespan was measured at 3 mg/kg dosage after sc administration; settings: Mus musculus
[11] = Michaelis constant of compound was determined from affinity towards carrier component of transport mechanism
[12] = tested on: L1210; experiment: Minimum inhibitory concentration of compound was tested for growth inhibition of L1210 cells; format: functional; settings: Mus musculus
[13] = Influx velocity of the compound; format: ADME
[14] = tested on: L1210; experiment: Antitumor activity expressed as mean survival time against L1210 leukemia cells in mice after sc administration at dose 15 mg/kg; settings: route subcutaneous
[15] = target: T1, Dihydrofolate reductase; experiment: Tested for inhibition of dihydrofolate reductase enzyme from mouse
[16] = tested on: L1210; experiment: Minimum inhibitory concentration of compound was tested for growth inhibition of L1210 cells.; format: functional; settings: Mus musculus

Sequence of Dihydrofolate reductase (Lactobacillus casei) (P00381 whole entry): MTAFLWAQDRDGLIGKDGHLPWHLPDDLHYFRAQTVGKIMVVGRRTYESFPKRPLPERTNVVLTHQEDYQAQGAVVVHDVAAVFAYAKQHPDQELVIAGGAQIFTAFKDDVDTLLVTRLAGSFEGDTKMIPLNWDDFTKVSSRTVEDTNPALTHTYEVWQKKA

With `CC(Cc1cnc2nc(N)nc(N)c2n1)c1ccc(C(=O)O)cc1` (stereo not given) the Concentration [1] was 60 ng/mL, the Concentration [2] was 0.72 ng/mL and the Concentration [3] was 0.72 ng/mL. The Concentration [4] was 5 ng/mL and the IC50 [5] was 420 nM.

With `CC(C)(Cc1cnc2nc(N)nc(N)c2n1)c1ccc(C(=O)NC(CCC(=O)O)C(=O)O)cc1` (stereo not given) the ILS at 15 mg/kg [6] was 135%, the Ki [7] was 0.0026 nM and the Concentration [1] was > 2000 ng/mL. For the same molecule, the MST [8] was 16.1 days, the K [9] was 0.24 min⁻¹ and the Concentration [2] was 0.25 ng/mL. It also gave an ILS at 3 mg/kg [10] of 143%, a Concentration [3] of 0.25 ng/mL and a Km [11] of 0.93 µM. It also gave an MIC50 [12] of 0.00058 µM (≈ 0.271 ng/mL), a Concentration [4] of 0.04 ng/mL and an IC50 [5] of 27 nM. The Vmax [13] was 8.31 nM/min/g and the MST [14] was 15.9 days.

`CCC(Cc1cnc2nc(N)nc(N)c2n1)c1ccc(C(=O)O)cc1` (stereo not given) gave a Concentration [1] of 50 ng/mL, a Concentration [2] of 0.9 ng/mL and a Concentration [3] of 0.9 ng/mL. The Concentration [4] was 5.4 ng/mL and the IC50 [5] was 380 nM.

`Nc1nc(N)c2nc(CNc3ccc(C(=O)N[C@@H](CCC(=O)O)C(=O)O)cc3)cnc2n1` [AMINOPTERIN] showed a K [9] of 0.21 min⁻¹, a Km [11] of 1.21 µM and a Ki [15] of 0.0023 nM. For the same molecule, the MIC50 [16] was 0.00061 µM (≈ 0.269 ng/mL) and the Vmax [13] was 7.83 nM/min/g.

With `CC(C)(Cc1cnc2nc(N)nc(N)c2n1)c1ccc(C(=O)O)cc1` the Concentration [1] was 40 ng/mL, the Concentration [2] was 0.5 ng/mL and the Concentration [3] was 0.5 ng/mL. It also gave a Concentration [4] of 3.6 ng/mL and an IC50 [5] of 440 nM.

With `CC(Cc1cnc2nc(N)nc(N)c2n1)c1ccc(C(=O)NC(CCC(=O)O)C(=O)O)cc1` (stereo not given) the ILS at 15 mg/kg [6] was 235%, the Ki [7] was 0.0024 nM and the Concentration [1] was 200 ng/mL. For the same molecule, the MST [8] was 18.6 days, the K [9] was 0.23 min⁻¹ and the Concentration [2] was 0.32 ng/mL. For the same molecule, the ILS at 3 mg/kg [10] was 181%, the Concentration [3] was 0.32 ng/mL and the Km [11] was 1.01 µM. It also gave an MIC50 [12] of 0.00051 µM (≈ 0.231 ng/mL), a Concentration [4] of 0.03 ng/mL and an IC50 [5] of 28 nM. The Vmax [13] was 8.02 nM/min/g and the MST [14] was 22.1 days.

With `CCC(Cc1cnc2nc(N)nc(N)c2n1)c1ccc(C(=O)NC(CCC(=O)O)C(=O)O)cc1` (stereo not given) the ILS at 15 mg/kg [6] was 211%, the Concentration [1] was 1300 ng/mL and the MST [8] was 17.8 days. For the same molecule, the K [9] was 0.2 min⁻¹, the Concentration [2] was 0.37 ng/mL and the ILS at 3 mg/kg [10] was 170%. For the same molecule, the Concentration [3] was 0.37 ng/mL, the Km [11] was 0.89 µM and the MIC50 [12] was 0.00055 µM (≈ 0.257 ng/mL). It also gave a Concentration [4] of 0.08 ng/mL, an IC50 [5] of 27 nM and a Vmax [13] of 7.8 nM/min/g. It also gave an MST [14] of 20.5 days.

`CN(Cc1cnc2nc(N)nc(N)c2n1)c1ccc(C(=O)N[C@@H](CCC(=O)O)C(=O)O)cc1` [METHOTREXATE] showed an ILS at 15 mg/kg [6] of 151%, a Concentration [1] of 3500 ng/mL and an MST [8] of 15.8 days. It also gave a K [9] of 0.19 min⁻¹, an ILS at 3 mg/kg [10] of 139% and a Concentration [3] of 0.05 ng/mL. The Km [11] was 3.42 µM, the MIC50 [12] was 0.00271 µM (≈ 1.23 ng/mL) and the Concentration [4] was 0.01 ng/mL. It also gave a Vmax [13] of 7.77 nM/min/g and an MST [14] of 16.6 days.

In the case of `Nc1nc(N)c2nc(CCc3ccc(C(=O)N[C@@H](CCC(=O)O)C(=O)O)cc3)cnc2n1`, the ILS at 15 mg/kg [6] is reported as 178%, the Ki [7] is reported as 0.0021 nM and the Concentration [1] is reported as > 2000 ng/mL. For the same molecule, the MST [8] was 17.3 days, the K [9] was 0.23 min⁻¹ and the Concentration [2] was 0.2 ng/mL. For the same molecule, the ILS at 3 mg/kg [10] was 162%, the Concentration [3] was 0.2 ng/mL and the Km [11] was 0.96 µM. It also gave an MIC50 [12] of 0.00061 µM (≈ 0.268 ng/mL), a Concentration [4] of 0.01 ng/mL and a Vmax [13] of 8.13 nM/min/g. For the same molecule, the MST [14] was 18.4 days.
